Laboratory results published in patent US12060349B2, “Glucosylceramide synthase inhibitors” (Genzyme Corporation, priority 2012, dated 2024).

System: K14 mouse
Experiment: K14 mouse model of type 2 Gaucher disease
Format: in vivo
From the text: As noted above, Gaucher Disease results from a deficiency of the lysosomal enzyme glucocerebrosidase (GC). In the most common phenotype of Gaucher disease (type 1), pathology is limited to the reticuloendothelial and skeletal systems and there are no neuropathic symptoms. See Barranger, Glucosylceramide lipidosis: Gaucher disease. In: Scriver CR BA, Sly WS, Valle D, editor. The Metabolic Basis of Inherited Disease. New York: McGraw-Hill. pp. 3635-3668 (2001). In neuropathic Gaucher disease (nGD), subdivided into type 2 and type 3 Gaucher disease, the deficiency of glucocerebrosidase (GC) causes glucosylceramide (GluCer; GL-1) and glucosylsphingosine (GluSph) to accumulate in the brain, leading to neurologic impairment. Type 2 Gaucher disease is characterized by early onset, rapid progression, extensive pathology in the viscera and central nervous system, and death usually by 2 years of age. Type 3 Gaucher disease, also known as subacute nGD, is an intermediate phenotype with varying age of onset and different degrees of severity and rates of progression. Goker-Alpan et al., The Journal of Pediatrics 143: 273-276 (2003). A recent development has produced the K14 lnl/lnl mouse model of type 2 Gaucher disease (hereinafter, the “K14 mouse”); this mouse model closely recapitulates the human disease showing ataxia, seizures, spasticity and a reduced median lifespan of only 14 days. Enquist et al., PNAS 104: 17483-17488 (2007).
As in patients with nGD, several mouse models of the disease have increased levels of GluCer and GluSph in the brain due to the deficiency in GC activity. Liu et al., PNAS 95: 2503-2508 (1998) and Nilsson, J. Neurochem 39: 709-718 (1982). The “K14” mice display a neuropathic phenotype that shares many pathologic features with type 2 Gaucher disease, such as neurodegeneration, astrogliosis, microglial proliferation, and increased levels of GluCer and GluSph in specific brain regions. Enquist et al. (2007).
Clinical management of patients affected by nGD poses a challenge for treating physicians both because of the severity of type 2 disease and the inability of the current therapies to cross the blood brain barrier (BBB). Current treatment of non-nGD relies on the intravenous delivery of recombinant human glucocerebrosidase (Imiglucerase; Cerezyme™) to replace the missing enzyme or the administration of glucosylceramide synthase inhibitors to attenuate substrate (GL-1) production. […] Current small molecule glucosylceramide synthase inhibitors in the clinic are not likely to address the neuropathic phenotypes of nGD.

CC(C)(NC(=O)OC1CN2CCC1CC2)c1cccc(-c2ccc(F)cc2)c1 (stereo not shown) [Gz161, Quinuclidin-3-yl (2-(4′-fluoro-[1,1′-biphenyl]-3-yl)propan-2-yl)carbamate]
brain GluCer: reduce | brain GluSph: reduce | brain neuropathology: reduced | lifespan: extended
